One data set relates to SARS-CoV-2 trVLP. The class given is cell-based.
The next data set relates to Caco-2-N cells. The data set is described as follows: in vitro. The conditions noted are these: Fig 6B-6E, at tested concentrations, CellTiter-Glo. The data set is classed as cell-based, human. On the procedure:
(§1) Caco-2-N cells were seeded into 96-well plate (1×10^3 cells/well). After 12 hours, cells were treated with drugs with different concentrations. Cell viability was measured two days post treatment with CellTiter-Glo Luminescent Cell Viability Assay kit (Promega, G7570) following standard protocol. In brief, cells in 100 μl culture medium were added with 100 μl CellTiter-Glo reagent. After 15 minutes, luminescence was recorded with GloMax (Promega). CC50 was determined using logarithmic interpolation using GraphPad Prism software version 7.0.

The subject of data set [1] is SARS-CoV-2 strain nCoV-SH01. Description: microbe, parasite or virus in culture. The data set is classed as cell-based.
For another data set, the system named is HCoV-OC43. The conditions noted are these: cited from earlier work.
Data set [2] relates to avian infectious bronchitis virus (IBV). To be noted: cited from earlier work.
The next data set can be described thus: in vitro. The data set is classed as cell-based, human. To be noted: human, n.d. = not detected. On the procedure:
as §1

Another data set deals with SARS-CoV-2. The conditions noted are these: cited from earlier work.
The next data set has as its system SARS-CoV-2 GFP/ΔN trVLP. The data set is classed as cell-based.
Where [3] appears, read: Severe acute respiratory syndrome coronavirus 2, A549-ACE2.

Where two headings read alike, the source gives them in different places.

In the case of `Cn1cc(C2=C(c3ccc(Cl)cc3Cl)C(=O)NC2=O)c2ccccc21` [SB216763], the “effect on GFP expression (trVLP production)” value with SARS-CoV-2 trVLP is listed as “inhibit GFP expression in a dose-dependent manner”.

As to `CCC(CC)COC(=O)[C@H](C)N[P@](=O)(OC[C@H]1O[C@@](C#N)(c2ccc3c(N)ncnn23)[C@H](O)[C@@H]1O)Oc1ccccc1` [Remdesivir], the cytotoxic effect result in the data set with Caco-2-N cells is “no apparent cytotoxic effect”.

By IC50 is commonly meant the concentration needed to halve the response being measured. As for `O[C@H]1[C@H]2c3cc4c(cc3CN3CCC(=C[C@@H]1O)[C@H]23)OCO4` [Lycorine chloride], in data set [1] (setting [3]), the IC50 came out at 773 nM. Moreover, the “inhibition of HCoV-OC43 infection” value with HCoV-OC43 was “inhibit HCoV-OC43 infection”.

Consider `CO[C@@H]1C[C@@H](C[C@H]2CC[C@H](C)[C@H]([C@@H](C)C(=O)O)O2)O[C@]2(O[C@](C)([C@H]3CC[C@@](C)([C@@H]4O[C@@H]([C@H]5O[C@@](O)(CO)[C@H](C)C[C@@H]5C)C[C@@H]4C)O3)C[C@H]2C)[C@@H]1C` [Nigericin sodium], for which, in data set [1] (read-out: IC50), the half-maximal inhibitory concentration (IC50) is 11200 nM.

On to `[Cl-].[Li+]` [LiCl], for which the “effect on GFP expression (trVLP production)” value in the data set with SARS-CoV-2 trVLP is given as “inhibit GFP expression in a dose-dependent manner”.

As for Monensin sodium, the IC50 in data set [1] (read-out: IC50) stood at 632 nM. Also, the “inhibition of HCoV-OC43 infection” value in the data set on HCoV-OC43 is recorded as “inhibit HCoV-OC43 infection”. Besides, the “inhibition of IBV infection” value in data set [2] is recorded as “blocks avian infectious bronchitis virus (IBV) infection”.

With GC376, the cytotoxic effect entry in the data set with Caco-2-N cells was “no apparent cytotoxic effect”.

Regarding Tubeimoside I, in data set [1] (read-out: IC50), the IC50 amounted to 1370 nM.

As usually defined, the CC50 is the concentration that lowers cell viability or growth by half. In turn, `CC[C@@H](C(=O)[C@@H](C)[C@@H](O)[C@H](C)[C@@H]1O[C@@H]([C@@H](CC)C(=O)O)CC[C@@H]1C)[C@H]1O[C@]2(C=C[C@@H](O)[C@]3(CC[C@@](C)([C@H]4CC[C@](O)(CC)[C@H](C)O4)O3)O2)[C@H](C)C[C@@H]1C` [Salinomycin] came in with a CC50 in “in vitro” (Fig 7G hit compounds, cell line for this CC50 not stated) of 20200 nM. For the same compound, the “selectivity index (SI = CC50/IC50)” value in data set [1] worked out at 7.13. The IC50 in data set [1] (setting [3]) came out at 2840 nM. In addition, the “inhibition of HCoV-OC43 infection” value in the data set with HCoV-OC43 is recorded as “inhibit HCoV-OC43 infection”. Further, the “antiviral activity against SARS-CoV-2 infection in vitro” value with SARS-CoV-2 is listed as “potent antiviral activity”.

With `Cc1cccc(C)c1OCC(=O)N[C@@H](Cc1ccccc1)[C@@H](O)C[C@H](Cc1ccccc1)NC(=O)[C@H](C(C)C)N1CCCNC1=O` [Lopinavir], the “Selectivity Index (SI)” value with SARS-CoV-2 GFP/ΔN trVLP was determined as 2.18. In “in vitro” (Fig 6F, CellTiter-Glo, two days treatment), the cytotoxic concentration (CC50) is 19100 nM. Also, in the data set with Caco-2-N cells, the cytotoxic effect result is given as “serious cytotoxicity at the IC50 concentration”.

With `CC(C)c1nc(CN(C)C(=O)N[C@H](C(=O)N[C@@H](Cc2ccccc2)C[C@H](O)[C@H](Cc2ccccc2)NC(=O)OCc2cncs2)C(C)C)cs1` [Ritonavir], in the data set on Caco-2-N cells, the cytotoxic effect result is recorded as “serious cytotoxicity at the IC50 concentration”.

(Values after paper PMC7990224 (PLoS Pathogens, 2021).)
